Measured values from ChEMBL document CHEMBL5604063, “ASAP - DENV-2 NS2B-NS3 protease fluorescence dose response” (2024).
pIC50: −log10 of the molar value. Values joined by “and” are separate entries in the source; they are usually repeats but may differ in a detail not shown here. Equal values may be shown once.

Columns and labels:
Genome polyprotein [1] = target: T1, Genome polyprotein (dengue virus type 2, UniProt P29990); assay type: functional, Thailand/16681/1984
Genome polyprotein [2] = target: T1, Genome polyprotein; assay type: functional, Thailand/16681/1984; remark: listed apart in the source

T1 sequence (P29990 1346-1475 limits assumed): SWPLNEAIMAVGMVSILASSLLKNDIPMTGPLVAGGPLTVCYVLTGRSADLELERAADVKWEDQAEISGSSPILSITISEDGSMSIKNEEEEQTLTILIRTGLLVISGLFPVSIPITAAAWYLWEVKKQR
T1 sequence (P29990 1476-2093 limits assumed): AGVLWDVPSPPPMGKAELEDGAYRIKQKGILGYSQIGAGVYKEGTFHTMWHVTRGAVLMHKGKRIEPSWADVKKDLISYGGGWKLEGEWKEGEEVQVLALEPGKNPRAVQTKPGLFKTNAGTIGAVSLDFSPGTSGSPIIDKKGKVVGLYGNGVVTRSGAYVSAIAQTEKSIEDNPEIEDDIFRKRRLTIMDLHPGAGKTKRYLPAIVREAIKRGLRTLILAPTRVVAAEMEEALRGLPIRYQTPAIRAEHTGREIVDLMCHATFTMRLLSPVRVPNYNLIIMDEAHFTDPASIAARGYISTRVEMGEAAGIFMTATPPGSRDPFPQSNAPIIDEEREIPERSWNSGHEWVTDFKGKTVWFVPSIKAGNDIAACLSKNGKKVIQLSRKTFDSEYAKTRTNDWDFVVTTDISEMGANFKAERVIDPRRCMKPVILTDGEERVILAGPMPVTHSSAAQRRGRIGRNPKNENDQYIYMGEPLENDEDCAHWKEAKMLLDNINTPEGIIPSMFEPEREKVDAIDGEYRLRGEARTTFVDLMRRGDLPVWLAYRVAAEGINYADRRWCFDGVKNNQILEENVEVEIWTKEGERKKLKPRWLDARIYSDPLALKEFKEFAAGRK

SMILES	pIC50 (Genome polyprotein [1])	pIC50 (Genome polyprotein [2])
NCCCc1cccc(NC(=O)c2cc(Cl)cc(NC(=O)OCc3ccccc3)c2)n1	< 4.00	4.21
NCc1cccc(NC(=O)c2cc(NC(=O)OCc3ccccc3)ccc2C(F)(F)F)c1	< 4.00	< 4.00
N#Cc1csc(CN2CCC([C@H](NC(=O)OCc3ccccc3)C(=O)Nc3cccc(CN)c3)CC2)c1	< 4.00	< 4.00
NCc1cccc(NC(=O)[C@@H](NC(=O)OCc2ccccc2)C2CCN(C(=O)C3CC3)CC2)c1	< 4.00	< 4.00
NCc1cccc(NC(=O)[C@H](NC(=O)OCc2ccccc2)C2CCN(C(=O)[C@H]3C[C@H](O)C3)CC2)c1	< 4.00	< 4.00
N#CC1(S(=O)(=O)N2CCC([C@H](NC(=O)OCc3ccccc3)C(=O)Nc3cccc(CN)c3)CC2)CCC1	< 4.00	4.09
NCc1cccc(NC(=O)c2cc(Cl)cc(OC3CC3)c2)c1	< 4.00	< 4.00
NCc1cccc(NC(=O)c2cc(Cl)cc(N3CCCC3)c2)c1	< 4.00	< 4.00
C[C@@H]1CNC[C@H]1c1ccc(NC(=O)c2ccc3c(c2)SCCN3)cc1	< 4.00	< 4.00
CCCCSc1ccc(Cl)cc1C(=O)Nc1cccc(CN)c1	< 4.00	< 4.00
O=C(Nc1cc(Cl)cc(C(=O)NCC2(CO)CCNCC2)c1)OCc1ccccc1	< 4.00	< 4.00
CNCCS(=O)(=O)N1CCC([C@H](NC(=O)OCc2ccccc2)C(=O)Nc2cccc(CN)c2)CC1	< 4.00	< 4.00
c1ccc(-c2[nH]c3ccccc3c2CN2CCC(c3cscn3)CC2)cc1	< 4.00	< 4.00
O=C(Nc1cc(Cl)cc(C(=O)Nc2ccc3c(c2)[C@H]2CC[C@H]3N2)c1)OCc1ccccc1	< 4.00	4.12
CSc1cc(F)c(C(=O)Nc2cccc(CN)c2)cc1NC(=O)OCc1ccccc1	< 4.00	4.07
NCc1cccc(NC(=O)[C@H](NC(=O)OCc2ccccc2)C2CCN(C3CCCC3)CC2)c1	< 4.00	< 4.00
CCN(C)S(=O)(=O)N1CCC([C@H](NC(=O)OCc2ccccc2)C(=O)Nc2cccc(CN)c2)CC1	< 4.00	< 4.00
CC(C)CC(=O)N1CCC([C@H](NC(=O)OCc2ccccc2)C(=O)Nc2cccc(CN)c2)CC1	< 4.00	< 4.00
NCc1cccc(NC(=O)c2cc(Cl)ccc2-n2cncn2)c1	< 4.00	< 4.00
CC(C)N1CCC([C@H](NC(=O)OCc2ccccc2)C(=O)Nc2cccc(CN)c2)CC1	< 4.00	< 4.00
Cn1nnc(S(=O)(=O)N2CCC([C@H](NC(=O)OCc3ccccc3)C(=O)Nc3cccc(CN)c3)CC2)n1	< 4.00	< 4.00
NCc1cccc(NC(=O)[C@H](NC(=O)OCc2ccccc2)C2CCN(S(=O)(=O)c3ccccc3)CC2)c1	< 4.00	< 4.00

SMILES	pIC50 (Genome polyprotein [1])	pIC50 (Genome polyprotein [2])
NCCc1nsc(NC(=O)c2cc(Cl)cc(NC(=O)OCc3ccccc3)c2)n1	< 4.00	< 4.00
CN(C)Cc1cccc(C(=O)Nc2cccc(CN)c2)c1	< 4.00	< 4.00
Cc1nnc(CN2CCC([C@H](NC(=O)OCc3ccccc3)C(=O)Nc3cccc(CN)c3)CC2)s1	< 4.00	< 4.00
COCc1cc(Cl)cc(C(=O)Nc2cccc(CN)c2)c1	< 4.00	< 4.00
Cn1nc(CCN)nc1NC(=O)c1cc(Cl)cc(NC(=O)OCc2ccccc2)c1	< 4.00	< 4.00
Cc1cc(CN)cc(NC(=O)c2cc(Cl)cc(NC(=O)OCc3ccccc3)c2)c1	< 4.00	4.38
C[C@H](N)c1cccc(NC(=O)c2cc(Cl)cc(NC(=O)OCc3ccccc3)c2)c1	< 4.00	4.16
NC12CCC(CNC(=O)c3cc(Cl)cc(NC(=O)OCc4ccccc4)c3)(CC1)OC2	< 4.00	< 4.00
NCc1cccc(NC(=O)[C@@H](NC(=O)OCc2ccccc2)C2CCN(S(=O)(=O)Cc3cscn3)CC2)c1	< 4.00	< 4.00
CCS(=O)(=O)c1ccc(Cl)cc1C(=O)Nc1cccc(CN)c1	< 4.00	< 4.00
Cn1nc([C@@H]2CCCN2)nc1NC(=O)c1cc(Cl)cc(NC(=O)OCc2ccccc2)c1	< 4.00	< 4.00
CC(C)(C#N)CS(=O)(=O)N1CCC([C@H](NC(=O)OCc2ccccc2)C(=O)Nc2cccc(CN)c2)CC1	< 4.00	< 4.00
NCCCc1ccnc(NC(=O)c2cc(Cl)cc(NC(=O)OCc3ccccc3)c2)c1	< 4.00	4.32
NCc1cccc(NC(=O)[C@H](NC(=O)OCc2ccccc2)c2ccc(OCc3ccncn3)cc2)c1	< 4.00	4.00
Cn1ccnc1COc1cccc([C@H](NC(=O)OCc2ccccc2)C(=O)Nc2cccc(CN)c2)c1	< 4.00	< 4.00
O=c1ccc(N2CCN(Cc3c[nH]c4ccccc34)CC2)n[nH]1	< 4.00	< 4.00
Cc1nnc(S(=O)(=O)N2CCC([C@H](NC(=O)OCc3ccccc3)C(=O)Nc3cccc(CN)c3)CC2)s1	< 4.00	< 4.00
NCc1cccc(NC(=O)c2cc(Cl)cc(N3CCCC3=O)c2)c1	< 4.00	< 4.00
Cc1c(CN)cccc1NC(=O)c1cc(Cl)cc(NC(=O)OCc2ccccc2)c1	< 4.00	< 4.00
CN1CCC(COc2cccc([C@H](NC(=O)OCc3ccccc3)C(=O)Nc3cccc(CN)c3)c2)CC1	< 4.00	< 4.00
NCc1cccc(NC(=O)c2cc(Cl)cc3c2NCCC3)c1	< 4.00	< 4.00
NCc1cccc(NC(=O)c2cc(Cl)cc3c2OCCNC3)c1	< 4.00	< 4.00

SMILES	pIC50 (Genome polyprotein [1])	pIC50 (Genome polyprotein [2])
Oc1cc(N2CCN(Cc3c[nH]c4ccccc34)CC2)ccn1	< 4.00	< 4.00
O=C(Nc1cc(Cl)cc(C(=O)Nc2cccc3c2CNC3)c1)OCc1ccccc1	< 4.00	< 4.00
CN(C)Cc1csc(NC(=O)c2cc(Cl)cc(NC(=O)OCc3ccccc3)c2)n1	< 4.00	< 4.00
NCc1cccc(NC(=O)[C@@H](NC(=O)OCc2ccccc2)C2CCN(S(=O)(=O)Cc3ncon3)CC2)c1	< 4.00	< 4.00
NCc1cccc(NC(=O)c2nc(=O)cc(NC(=O)OCc3ccccc3)[nH]2)c1	< 4.00	< 4.00
NCc1cccc(NC(=O)[C@H](NC(=O)OCc2ccccc2)c2ccc(OCCc3cscn3)cc2)c1	< 4.00	< 4.00
Clc1ccc2c(CN3CCC(c4c[nH]c5ncccc45)CC3)c[nH]c2c1	< 4.00	< 4.00
NCc1ccc(O)c(NC(=O)c2cc(Cl)cc(NC(=O)OCc3ccccc3)c2)c1	< 4.00	4.13
CN(C)Cc1cc(NC(=O)[C@H](NC(=O)OCc2ccccc2)c2ccc(OCc3ccccc3)cc2)sn1	< 4.00	< 4.00
NCc1ccccc1Oc1ccc(S(=O)(=O)Nc2ccc(Cl)cc2C(=O)NCC(F)(F)F)cc1	< 4.00	< 4.00
Cn1ccnc1C(=O)N1CCC([C@H](NC(=O)OCc2ccccc2)C(=O)Nc2cccc(CN)c2)CC1	< 4.00	< 4.00
CS(=O)(=O)N1CCC([C@@H](NC(=O)OCc2ccccc2)C(=O)Nc2cccc(CN)c2)CC1	< 4.00	< 4.00
CN(C)CCOc1ccc(Cl)cc1C(=O)Nc1cccc(CN)c1	< 4.00	< 4.00
Cc1ccc(NC(=O)c2cc(Cl)cc(NC(=O)OCc3ccccc3)c2)cc1CN	< 4.00	< 4.00 and 4.02
CCCCS(=O)(=O)N1CCC([C@H](NC(=O)OCc2ccccc2)C(=O)Nc2cccc(CN)c2)CC1	4.00	< 4.00
CSc1cc(Cl)cc(C(=O)Nc2cccc(CN)c2)c1	< 4.00	< 4.00
CN1C(=O)C[C@H](C(=O)Nc2cccc(CN)c2)[C@H]1c1ccc(Cl)c(Cl)c1	< 4.00	< 4.00
NCc1cccc(NC(=O)c2cc(Cl)ccc2OCC(F)(F)F)c1	< 4.00	< 4.00
NCc1cccc(NC(=O)[C@H](NC(=O)OCc2ccccc2)C2CCN(CCc3ccccc3)CC2)c1	< 4.00	< 4.00
Cn1ncc(CN2CCC([C@H](NC(=O)OCc3ccccc3)C(=O)Nc3cccc(CN)c3)CC2)n1	< 4.00	< 4.00
NCc1cccc(NC(=O)[C@H](NC(=O)OCc2ccccc2)c2cccc(OCCn3cccn3)c2)c1	< 4.00	< 4.00
